Common to all, as to experiment: relative viability (nuclei count vs DMSO), 5 days (fraction); higher = more cells survive
Compound in the assay “QS11 + Luminespib”: C1CC2=C(C1)C=C(C=C2)OC3=NC(=C4C(=N3)N(C=N4)CC5=CC=C(C=C5)C6=CC=CC=C6)N[C@@H](CC7=CC=CC=C7)CO [QS11] + CCNC(=O)c1noc(-c2cc(C(C)C)c(O)cc2O)c1-c1ccc(CN2CCOCC2)cc1 [Luminespib] (partner 0.01 µM)
In outline:
(§1)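 Relative viability is defined as nuclei in treated wells over nuclei in vehicle wells. Duplicate plates were run and medians reported. Lung cancer cell lines in 1536-well plates were dosed by pin tool one day after seeding, with one drug or with a fixed anchor-drug dose plus five library-drug doses (not always all listed) in √10 steps, and nuclei were counted after 5 days.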

Compound in the assay “AZ628 + Tozasertib”: CC1=C(C=C(C=C1)NC(=O)C2=CC(=CC=C2)C(C)(C)C#N)NC3=CC4=C(C=C3)N=CN(C4=O)C [AZ628] + Cc1cc(Nc2cc(N3CCN(C)CC3)nc(Sc3ccc(NC(=O)C4CC4)cc3)n2)n[nH]1 [Tozasertib] (partner 0.1 µM)
In a few lines:
as §1

Compound in the assay “AZ628 + Phenformin”: CC1=C(C=C(C=C1)NC(=O)C2=CC(=CC=C2)C(C)(C)C#N)NC3=CC4=C(C=C3)N=CN(C4=O)C [AZ628] + N=C(N)NC(=N)NCCc1ccccc1 [Phenformin] (partner 250 µM)
In a few lines:
as §1

Compound in the assay “AZ628 + AZD7762”: CC1=C(C=C(C=C1)NC(=O)C2=CC(=CC=C2)C(C)(C)C#N)NC3=CC4=C(C=C3)N=CN(C4=O)C [AZ628] + NC(=O)Nc1cc(-c2cccc(F)c2)sc1C(=O)N[C@H]1CCCNC1 [AZD7762] (partner 0.2 µM)
In a few lines:
as §1

Consider ChaGo-K-1, for which the relative viability in the assay with QS11 + Luminespib (first compound 0.08 µM) was determined as 0.506; with QS11 + Luminespib (first compound 0.253 µM) it was 0.609; in the assay with QS11 + Luminespib (first compound 0.8 µM), 0.679; in the assay with QS11 + Luminespib (first compound 2.53 µM), 0.664; with QS11 + Luminespib (first compound 8 µM), 0.655; with AZ628 + Tozasertib (first compound 0.08 µM) it was 0.241. Further, the relative viability in the assay with AZ628 + Tozasertib (first compound 0.253 µM) worked out at 0.231; in the assay with AZ628 + Tozasertib (first compound 0.8 µM) it was 0.218; in the assay with AZ628 + Tozasertib (first compound 2.53 µM) it was 0.212; with AZ628 + Tozasertib (first compound 8 µM), 0.171; in the assay with AZ628 + Phenformin (first compound 0.08 µM), 0.559; in the assay with AZ628 + Phenformin (first compound 0.253 µM), 0.464. The relative viability was determined as 0.398 with AZ628 + Phenformin (first compound 0.8 µM); 0.459 with AZ628 + Phenformin (first compound 2.53 µM); 0.373 in the assay with AZ628 + Phenformin (first compound 8 µM); 0.935 with AZ628 + AZD7762 (first compound 0.08 µM); 0.821 in the assay with AZ628 + AZD7762 (first compound 0.253 µM); 0.805 with AZ628 + AZD7762 (first compound 0.8 µM). Also, the relative viability in the assay with AZ628 + AZD7762 (first compound 2.53 µM) was found to be 0.853; with AZ628 + AZD7762 (first compound 8 µM), 0.663.

For the cell line EKVX, the relative viability with QS11 + Luminespib (first compound 0.08 µM) was 0.907; with QS11 + Luminespib (first compound 0.253 µM), 0.732; with QS11 + Luminespib (first compound 2.53 µM), 0.848; with QS11 + Luminespib (first compound 8 µM), 1.03; with AZ628 + Tozasertib (first compound 0.08 µM), 0.396; with AZ628 + Tozasertib (first compound 0.253 µM) it was 0.381. The relative viability in the assay with AZ628 + Tozasertib (first compound 0.8 µM) turned out to be 0.392; with AZ628 + Tozasertib (first compound 2.53 µM), 0.467; in the assay with AZ628 + Tozasertib (first compound 8 µM) it was 0.233; in the assay with AZ628 + Phenformin (first compound 0.08 µM) it was 0.241; in the assay with AZ628 + Phenformin (first compound 0.253 µM) it was 0.222; with AZ628 + Phenformin (first compound 0.8 µM), 0.187. Also, the relative viability in the assay with AZ628 + Phenformin (first compound 2.53 µM) was found to be 0.232; with AZ628 + Phenformin (first compound 8 µM) it was 0.211; with AZ628 + AZD7762 (first compound 0.08 µM), 0.71; with AZ628 + AZD7762 (first compound 0.253 µM) it was 0.755; with AZ628 + AZD7762 (first compound 0.8 µM), 0.558; with AZ628 + AZD7762 (first compound 2.53 µM), 0.704. The relative viability with AZ628 + AZD7762 (first compound 8 µM) came out at 0.64.

For the cell line EMC-BAC-2, the relative viability with QS11 + Luminespib (first compound 0.08 µM) came out at 1.28; with QS11 + Luminespib (first compound 0.253 µM) it was 1.27; with QS11 + Luminespib (first compound 0.8 µM), 0.817; with QS11 + Luminespib (first compound 2.53 µM), 0.953; with QS11 + Luminespib (first compound 8 µM), 0.961; with AZ628 + Tozasertib (first compound 0.08 µM) it was 0.294. For the same cell line, the relative viability in the assay with AZ628 + Tozasertib (first compound 0.253 µM) was 0.335; in the assay with AZ628 + Tozasertib (first compound 0.8 µM), 0.381; with AZ628 + Tozasertib (first compound 2.53 µM) it was 0.349; in the assay with AZ628 + Tozasertib (first compound 8 µM) it was 0.362; in the assay with AZ628 + Phenformin (first compound 0.08 µM) it was 0.584; in the assay with AZ628 + Phenformin (first compound 0.253 µM) it was 0.57. The relative viability was determined as 0.432 with AZ628 + Phenformin (first compound 0.8 µM); 0.602 with AZ628 + Phenformin (first compound 2.53 µM); 0.505 with AZ628 + Phenformin (first compound 8 µM); 1.16 with AZ628 + AZD7762 (first compound 0.08 µM); 1.09 in the assay with AZ628 + AZD7762 (first compound 0.253 µM); 1.18 in the assay with AZ628 + AZD7762 (first compound 0.8 µM). Also, the relative viability with AZ628 + AZD7762 (first compound 2.53 µM) stood at 1.13; with AZ628 + AZD7762 (first compound 8 µM) it was 1.28.

In the case of EPLC-272H, the relative viability in the assay with QS11 + Luminespib (first compound 0.253 µM) amounted to 0.269; with QS11 + Luminespib (first compound 0.8 µM), 0.311; in the assay with QS11 + Luminespib (first compound 2.53 µM), 0.385; in the assay with QS11 + Luminespib (first compound 8 µM) it was 0.284; with AZ628 + Tozasertib (first compound 0.08 µM), 0.28; in the assay with AZ628 + Tozasertib (first compound 0.253 µM) it was 0.179. In addition, the relative viability in the assay with AZ628 + Tozasertib (first compound 0.8 µM) stood at 0.289; in the assay with AZ628 + Tozasertib (first compound 2.53 µM), 0.297; in the assay with AZ628 + Tozasertib (first compound 8 µM), 0.248; in the assay with AZ628 + Phenformin (first compound 0.08 µM), 0.419; with AZ628 + Phenformin (first compound 0.253 µM), 0.37; in the assay with AZ628 + Phenformin (first compound 0.8 µM), 0.363. Besides, the relative viability with AZ628 + Phenformin (first compound 2.53 µM) was determined as 0.302; in the assay with AZ628 + Phenformin (first compound 8 µM) it was 0.2; with AZ628 + AZD7762 (first compound 0.08 µM), 0.34; in the assay with AZ628 + AZD7762 (first compound 0.253 µM), 0.168; with AZ628 + AZD7762 (first compound 0.8 µM), 0.165; in the assay with AZ628 + AZD7762 (first compound 2.53 µM), 0.22. Moreover, in the assay with AZ628 + AZD7762 (first compound 8 µM), the relative viability was determined as 0.236.

As for H3255, the relative viability amounted to 0.818 with QS11 + Luminespib (first compound 0.08 µM); 1.06 with QS11 + Luminespib (first compound 0.253 µM); 0.966 in the assay with QS11 + Luminespib (first compound 2.53 µM); 0.961 with QS11 + Luminespib (first compound 8 µM); 0.863 in the assay with AZ628 + Tozasertib (first compound 0.08 µM); 0.613 with AZ628 + Tozasertib (first compound 0.253 µM). Besides, the relative viability is 0.915 with AZ628 + Tozasertib (first compound 0.8 µM); 0.62 with AZ628 + Tozasertib (first compound 2.53 µM); 0.487 with AZ628 + Tozasertib (first compound 8 µM); 0.41 with AZ628 + Phenformin (first compound 0.08 µM); 0.33 in the assay with AZ628 + Phenformin (first compound 0.253 µM); 0.337 with AZ628 + Phenformin (first compound 0.8 µM). In addition, the relative viability with AZ628 + Phenformin (first compound 2.53 µM) came to 0.393; with AZ628 + Phenformin (first compound 8 µM), 0.302; with AZ628 + AZD7762 (first compound 0.08 µM) it was 0.852; with AZ628 + AZD7762 (first compound 0.253 µM) it was 0.726; with AZ628 + AZD7762 (first compound 0.8 µM), 0.806; with AZ628 + AZD7762 (first compound 2.53 µM), 1.01. The relative viability in the assay with AZ628 + AZD7762 (first compound 8 µM) was determined as 0.684.

Take HARA: the relative viability was determined as 0.675 with QS11 + Luminespib (first compound 0.08 µM); 0.747 in the assay with QS11 + Luminespib (first compound 0.253 µM); 0.845 with QS11 + Luminespib (first compound 2.53 µM); 1.19 with QS11 + Luminespib (first compound 8 µM); 0.144 in the assay with AZ628 + Tozasertib (first compound 0.08 µM); 0.122 with AZ628 + Tozasertib (first compound 0.253 µM). For the same cell line, the relative viability was 0.111 in the assay with AZ628 + Tozasertib (first compound 0.8 µM); 0.0923 in the assay with AZ628 + Tozasertib (first compound 2.53 µM); 0.0666 with AZ628 + Tozasertib (first compound 8 µM); 0.527 in the assay with AZ628 + Phenformin (first compound 0.08 µM); 0.402 with AZ628 + Phenformin (first compound 0.253 µM); 0.409 in the assay with AZ628 + Phenformin (first compound 0.8 µM). Moreover, the relative viability with AZ628 + Phenformin (first compound 2.53 µM) was found to be 0.465; with AZ628 + Phenformin (first compound 8 µM) it was 0.376; with AZ628 + AZD7762 (first compound 0.08 µM), 0.299; in the assay with AZ628 + AZD7762 (first compound 0.253 µM), 0.216; with AZ628 + AZD7762 (first compound 0.8 µM), 0.272; with AZ628 + AZD7762 (first compound 2.53 µM), 0.363. The relative viability with AZ628 + AZD7762 (first compound 8 µM) is 0.228.

Regarding HCC-15, the relative viability in the assay with QS11 + Luminespib (first compound 0.08 µM) was determined as 0.334; in the assay with QS11 + Luminespib (first compound 0.253 µM), 0.311; in the assay with QS11 + Luminespib (first compound 0.8 µM) it was 0.332; with QS11 + Luminespib (first compound 2.53 µM), 0.341; with QS11 + Luminespib (first compound 8 µM), 0.389; with AZ628 + Tozasertib (first compound 0.08 µM), 0.389. The relative viability with AZ628 + Tozasertib (first compound 0.253 µM) was 0.491; in the assay with AZ628 + Tozasertib (first compound 0.8 µM), 0.273; with AZ628 + Tozasertib (first compound 2.53 µM), 0.337; in the assay with AZ628 + Tozasertib (first compound 8 µM), 0.135; in the assay with AZ628 + Phenformin (first compound 0.08 µM) it was 0.479; with AZ628 + Phenformin (first compound 0.253 µM) it was 0.4. For the same cell line, the relative viability is 0.366 with AZ628 + Phenformin (first compound 0.8 µM); 0.417 with AZ628 + Phenformin (first compound 2.53 µM); 0.224 with AZ628 + Phenformin (first compound 8 µM); 1.16 with AZ628 + AZD7762 (first compound 0.08 µM); 1.07 with AZ628 + AZD7762 (first compound 0.253 µM); 1.08 with AZ628 + AZD7762 (first compound 0.8 µM). Also, the relative viability with AZ628 + AZD7762 (first compound 2.53 µM) came out at 1.01; in the assay with AZ628 + AZD7762 (first compound 8 µM) it was 0.894.

The values above are taken from the supplement of paper PMC10307832.
